# In ChEMBL document CHEMBL3988442, “University of Dundee, Small-Polar-MMV Screening Library” (2021):
# Tested on: Schistosoma mansoni
# Assay: High throughput screening of compounds against Schistosoma mansoni motility
# Assay type: functional
# Design: dose or concentration left out as unconfirmed
row,Structure (SMILES),Percent Effect
1,Cc1cc(CC(=O)N2CCN(CC3CC3)[C@@H]3CS(=O)(=O)C[C@@H]32)ccc1F,11.19%
2,Cc1ccn(-c2ccccc2NCc2cccnc2C)n1,-3.196%
3,Cn1cc(-c2csc(N3CCOCC3)n2)cn1,7.634%
4,CCc1ccccc1CN1CC[C@@H](NC(=O)c2cccnc2)[C@H](O)C1,-49.14%
5,CCC1CN(Cc2ccccc2)CCN1Cc1nnc(C2CCC2)o1 (configuration not stated),44.59%
6,Cc1nn(C)c(N(C)C)c1CNCC(O)c1ccccc1 (configuration not stated),-48.71%
7,Cn1c(Cn2ccnc2)nnc1C1CCN(Cc2cccnc2N)CC1,-10.4%
8,CC(C)N1CCC(N2CCN(C3CCC3)CC2CCO)CC1 (configuration not stated),7.869%
9,CC(C)(C)NC(=O)CNC(=O)CCc1ccccc1Br,20.34%
10,COC(=O)CN1CC(c2nc(Cc3ccccc3)no2)C1.O=C(O)C(=O)O,-0.4449%
11,CC(C)c1n[nH]c(C2CN(C(=O)CCCn3cccn3)CCO2)n1 (configuration not stated),21.88%
12,CN1CCN(CCCNC(=O)c2cc(Cl)c3c(c2)OCO3)CC1,-22.9%
13,CS(=O)(=O)Cc1cccc(C(=O)NCC2Cc3ccccc3O2)c1 (configuration not stated),-78.27%
14,COCCCC1(CO)CCCN(CCc2ccccc2)C1 (configuration not stated),-47.32%
15,COc1ccccc1OCC(=O)Nc1ncccc1Cl,-2.169%
16,NC(=O)CN1CCCN(C(=O)c2ccn(-c3cccc(F)c3)n2)CC1,-9.604%
17,O=S(=O)(Cc1ccccc1)NCc1ccco1,-25.54%
18,O=S(=O)(c1ccccc1)N1CCN(CCn2ccnc2)CC1,-51.46%
19,CCc1ncncc1C(=O)NCCN1CCC(C)CC1,-31.56%
20,COCCNS(=O)(=O)c1ccc2c(c1)CCN(C(=O)c1cncn1C)C2,4.246%
21,NC(=O)c1cccc(CC2CCN(C(=O)CO)C2)c1 (configuration not stated),-14.33%
22,CC(C)NC(=O)NCCCc1cc(N)n(-c2ccccc2)n1,-56.45%
23,O=C(CCc1cscn1)NS(=O)(=O)c1ccc2ccccc2c1,22.96%

row,Structure (SMILES),Percent Effect
1,O=C(CN1CCCC1Cn1cncn1)Nc1cccnc1 (configuration not stated),-24.16%
2,COCCNC(=O)Cn1nc(C(C)C)c2cnn(C(C)(C)C)c2c1=O,-20.39%
3,O=C(Nc1ccnc(OC2CCOC2)c1)c1cc(F)ccc1F (configuration not stated),-26.29%
4,Cl.Cl.OC(CN1CCN(Cc2ccc(F)cc2)CC1)C1CC1 (configuration not stated),-83.95%
5,O=C(Nc1cccc(CN2CCOC2=O)c1)N1CCOCC1,11.29%
6,Cc1occc1C(=O)N1CCC2(CCCN(CC3CCC3)C2=O)C1 (configuration not stated),-40.66%
7,Cc1ccc(F)c(C(=O)N2CCN(S(C)(=O)=O)[C@@H](C)C2)c1,-35.69%
8,O=C(Cc1ccc(O)c(Cl)c1)N1CCN(CC2CC2)[C@@H]2CS(=O)(=O)C[C@@H]21,-40.54%
9,COc1ccc(CN(C)C(=O)CCc2c(C)nc(C)[nH]c2=O)cc1OC,-19.42%
10,Cc1cnc2n(c1=O)CC(C(=O)NC1CC1)CS2 (configuration not stated),-61.59%
11,c1cc(C2CCCN2Cc2nnnn2C2CC2)cs1 (configuration not stated),-76.39%
12,CCN1CC2(CCC1=O)CCN(C(=O)c1ccc(Cl)cc1O)CC2,-8.652%
13,COCCn1ccnc1C1CCCN(C(=O)CSCC2CC2)C1 (configuration not stated),-4.392%
14,CC(C)CNC(=O)Nc1ccc(CN2CCOC2=O)cc1,8.42%
15,CCn1nc2c(cc1=O)CN(Cc1nc3ccccc3c(=O)[nH]1)CC2,-62.65%
16,CC1CN(C)c2ccccc2CN1C(=O)c1ccncc1 (configuration not stated),-35.26%
17,CC1CN(C)c2ccccc2CN1C(=O)c1ccc[nH]1 (configuration not stated),-38.54%
18,CCN(CCn1cccn1)Cc1nc(-c2cccs2)oc1C,-16.9%
19,CCOc1ccc(CN(C)C(=O)NC(C)c2nncn2C)cc1 (configuration not stated),-46.5%
20,CN1C(=O)C(C)(C)COc2cc(NS(=O)(=O)c3ccccc3)ccc21,35.25%
21,CC1CN(C)c2ccccc2CN1C(=O)CSc1ccncc1 (configuration not stated),7.617%
22,COc1cccc(OCc2cc(C(=O)NC[C@H]3CCCN3)n[nH]2)c1,-4.692%
23,Cc1nc(C)n(CC2CN(CC(=O)Nc3nccs3)CCO2)n1 (configuration not stated),-3.889%

row,Structure (SMILES),Percent Effect
1,O=C(NC[C@@H]1CCCN1)c1cc(COc2cccc(C(F)(F)F)c2)[nH]n1,73.28%
2,CCOCCN1CCN(Cc2nnc(C3CC3)o2)CC1CC (configuration not stated),-4.218%
3,O=C(NCCN1CCC(c2cccs2)CC1)Nc1cccs1,-30.63%
4,COc1ccc(NC(=O)NC(C)(C)c2noc(C)n2)cc1,-52.77%
5,COc1ccc(C2CCCN2C(=O)NCCNc2ncccn2)cc1 (configuration not stated),-55.34%
6,COCCN1CCC(CN(CC2CCCO2)C(=O)COC)CC1 (configuration not stated),27.45%
7,O=C(c1cc(=O)[nH]c(=O)[nH]1)N1CCCCC1c1ccc(F)cc1 (configuration not stated),-6.768%
8,Cc1nc(C2CCCN(C(=O)c3scnc3C)C2)no1 (configuration not stated),18.51%
9,O=C1OCCN1CCOc1nc(-c2ccccc2Cl)no1,-41.52%
10,CCc1noc(C(C)N(C)CC(=O)Nc2ccc(C)cc2)n1 (configuration not stated),-42.61%
11,CN(CCCNc1cc(N2CCCC2CO)ncn1)S(C)(=O)=O (configuration not stated),-51.96%
12,CC(C)NC(=O)[C@@H]1C[C@H](N)CN1C(=O)c1cc2ccccc2[nH]c1=O,-4.577%
13,O=C1NCCCCC1Sc1nnc(-c2cccnc2)n1C1CC1 (configuration not stated),-73.97%
14,NC(=O)NCC(=O)N1C[C@H]2CC[C@@H]1CN(Cc1ccccc1)C2,-13.56%
15,CN(C)C(C(=O)N1CCCC1)c1ccccc1F (configuration not stated),-55.33%
16,CCN1CCCC1CN(CCN(C)C)S(=O)(=O)c1cccc(C#N)c1 (configuration not stated),27.57%
17,O=C(CCc1cc2n(n1)CCCN(C(=O)c1ccccn1)C2)NC1CC1,-25.84%
18,CCc1ncc2c(n1)CN(C(=O)COC)C2,-20.5%
19,O=C(CCc1nccs1)N1CCCC(N2CCNC2=O)C1 (configuration not stated),-31.05%
20,Cc1cnn(CCC(=O)N2CCOC(c3nc(C(C)(C)C)n[nH]3)C2)c1 (configuration not stated),-4.27%
21,CCOCCNc1nc(C2CCCC2)nc2c1cnn2C,-80.64%
22,Cc1cc(C[C@@H]2COC[C@@H]2NC(=O)CN2CCCC2)on1,-45.11%
23,O=C(NCC(O)c1cccs1)c1cccc(Cl)c1 (configuration not stated),-28.05%

row,Structure (SMILES),Percent Effect
1,Fc1ccccc1-c1noc2c1CN(CC1CC1)CC2,-95.25%
2,Cc1cc(C)n(CC2CCCN2C(=O)c2ccc3c(c2)nnn3C)n1 (configuration not stated),-59.08%
3,Cc1cc(CN2CCN(C(=O)C(C)C)[C@@H]3CS(=O)(=O)C[C@@H]32)ccc1F,10.81%
4,CCc1n[nH]c(C2CN(CC(=O)NCCc3ccsc3)CCO2)n1 (configuration not stated),-30.25%
5,CS(=O)(=O)CCNC(=O)C1(c2cccc(Cl)c2)CCCCC1,34.87%
6,Cc1cc(-c2nnc(SCC(=O)O)n2C(C)c2ccccc2)nn1C (configuration not stated),-38.23%
7,Cc1nc[nH]c1CN1C[C@@H]2CC[C@H](C1)N(C(=O)CCc1cnn(C)c1)C2,-10.53%
8,Cc1cnn(CC2CCCN2Cc2coc(-c3cccs3)n2)c1 (configuration not stated),-52.32%
9,CC(CNC(=O)Nc1ccc(N(C)C)nc1)Cn1cccn1 (configuration not stated),-28.69%
10,CN(C)C(CNC(=O)c1cccc(-n2cnnn2)c1)c1ccccc1Cl (configuration not stated),53.46%
11,CN(CCC(F)(F)F)C(=O)C1CCCN1C(=O)OC(C)(C)C (configuration not stated),-26.39%
12,Cc1cc(N2CCC(c3nnc(CN(C)C)n3C3CC3)CC2)ccn1,-0.2407%
13,COc1ccccc1Oc1ncccc1CNC(=O)[C@@H](C)NC(C)=O,-37.6%
14,COCc1cc(NCCc2ccc(F)cc2)n2nccc2n1,-25.55%
15,Cc1nc(-c2ccsc2)ccc1C(=O)O,-19.43%
16,O=C(NCCCn1nc2ccccn2c1=O)NC1CCC(O)CC1 (configuration not stated),-74.25%
17,CCn1c(CN(C)C)nnc1C1CCN(c2ccnc(C)c2)CC1,3.943%
18,CCC1c2cccn2CCN1C(=O)c1ccc2nonc2c1 (configuration not stated),-19.69%
19,COCC(NC(=O)c1ccc[nH]1)c1cccc(C(F)(F)F)c1 (configuration not stated),-105.3%
20,CN(C)C(=O)CNC(=O)Nc1cccc(Cl)c1SC(F)F,-29.89%
21,Cc1ccc(S(=O)(=O)NC2CNC(=O)C2)cc1C (configuration not stated),-73.52%
22,N#CC1(C(=O)Nc2ccc(OC(F)F)cc2)CCCC1,6.367%
23,Cc1cccc(C2(C(=O)NCCCn3cccn3)CC2)c1,-39.94%

row,Structure (SMILES),Percent Effect
1,Cc1c(Br)cccc1C(=O)NC(C)CN1CCCC1=O (configuration not stated),-4.935%
2,CCCc1cc(=O)[nH]c2nnc(SCC(=O)NCc3ccc(C)cc3)n12,-78.33%
3,Cc1n[nH]c(C2CN(C(=O)CCc3ccsc3)CCO2)n1 (configuration not stated),-49.32%
4,c1ccc(-c2noc3c2CN(CC2CC2)CC3)cc1,-116.8%
5,O=S(=O)(NCC1(O)CCOc2ccccc21)c1cccs1 (configuration not stated),-21.06%
6,CCn1c(N)nc2cc(C(=O)NCc3ccccc3Cl)cnc21,-40.17%
7,O=C(c1cn(-c2cc(N3CCSCC3)ncn2)cn1)N1CCSCC1,-48.35%
8,O=C(c1ccc(Br)s1)N1CCN(Cc2ccc(OC(F)(F)F)cc2)CC1,31.43%
9,CC(=O)Nc1cccc(C(=O)Nc2cnc3n2CCCC3)c1,-24.57%
10,O=C1CC2(CCN(CCO)CC2)CN1Cc1cc(F)cc(F)c1,8.592%
11,Cc1n[nH]c(C)c1C1CCCN1C(=O)CNC(=O)C(C)(C)C (configuration not stated),-23.3%
12,O=C(NCC(Cc1cccc(F)c1)N1CCCC1=O)c1ccccc1 (configuration not stated),-23.79%
13,CCCc1nnsc1C(=O)NCC1CCN(S(C)(=O)=O)CC1,-25.98%
14,COCC(=O)N1Cc2cnc(Cc3ccc(OC)cc3)nc2C1,-28.71%
15,CN(C)C(=O)C1CCCN1CCCNC(=O)c1ccccc1F (configuration not stated),-45.94%
16,CC(C)c1nc(CN(C)C2CCN(CC(F)(F)F)C2)no1 (configuration not stated),-30.86%
17,Cc1cnccc1N1CCCN(C(=O)CCCS(N)(=O)=O)CC1,-57.05%
18,CNC(=O)CS(=O)(=O)C1CCN(S(=O)(=O)C2CC2)CC1,7.856%
19,O=C(c1cc(=O)[nH]c(=O)[nH]1)N1CCCCC1c1nc2cc(F)ccc2[nH]1 (configuration not stated),-2.098%
20,CCN(Cc1cccnc1)CC1CCCO1 (configuration not stated),-47.82%
